# Experimental data published in patent US20220218734A1, “COMBINATIONS OF THERAPEUTIC AGENTS FOR TREATING UVEAL MELANOMA” (Universiteit Gent, priority 2019, published 2022).
# Columns and labels:
# [1] = test system: UM cell lines 92.1 and OMM1; experiment: ASO-compound combination validation, Excess over Bliss (viability and confluence); format: cell-based, human; conditions: compound combined with LNA ASO 3 (50 nM), 72 h, viability and confluence read outs; >0 synergism
# Method: For the validation experiments, uveal melanoma cell lines 92.1 and OMM1 were seeded in 96 well plates (Corning costar 3596) at a density of 5000 cells/well and were allowed to settle overnight. Subsequently, the cells were transfected using lipofectamine 2000 (Life Technologies) with 50 or 100 nM LNA ASO 3 or LNA NTC and treated with various concentrations of the compounds and with a final DMSO concentration of maximum 0.1%. The compounds were added to the wells using the HP D300e Digital dispenser (Tecan). Control cells were transfected with LNA NTC ASO and treated with DMSO.
# Cell viability was also examined using a CellTiter-Glo assay (Promega). Before initiating the assay, the culture plates and reconstituted assay buffer were placed at room temperature for 30 minutes. Next, the culture medium was replaced by 200 μl fresh culture medium—- assay buffer (1:1) mix. To induce complete cell lysis, the plates were shaken for 10 min. 100 μl from each well was subsequently transferred to an opaque 96-well plate (Nunc), which was measured with a GloMax 96 Microplate Luminometer (Promega). The CellTiter-Glo assay was performed on various predefined timepoints.
# For real-time analysis, IncuCyte Zoom system and IncuCyte S3 system (Essen BioScience) were used. Cells were seeded and treated as described above. After treatment, the culture plate was incubated in an IncuCyte Zoom system or IncuCyte S3 system at 37° C. in a humidified 5% CO2 incubator. Phase contrast whole well images were captured every 3 h. The IncuCyte ZOOM and IncuCyte S3 software (Essen BioScience) were utilized in real-time to measure % confluence, as a proxy for proliferation.
# Bliss independence (BI) scores were calculated to determine ASO-compound interactions. The predictive performance (BI score) is then compared to the observed drug interaction data measured by the Excess over Bliss. Excess over Bliss scores>0 indicate drug synergism, Excess over Bliss scores=0 indicate additive effects and Excess over Bliss scores<0 indicate drug antagonism.
# 4E-BP1 (T37/T46) = experiment: Western blot for 4E-BP1 and phospho-4E-BP1; format: cell-based, human; conditions: 92.1, 24 h, GDC-0349 0.625 μM or 1.25 μM; for phosphorylated 4E-BP1 (T37/T46) levels: ASO 3 50 nM
# Method: (§1) Cells were lysed in RIPA lysis buffer (5 mg/ml sodium deoxycholate, 150 mM NaCl, 50 mM Tris-HCl pH 7.5, 0.1% SDS solution, 1% NP-40) supplemented with protease and/or phosphatase inhibitors Protein concentrations were determined with the BCA protein assay (Bio-Rad). In total, 35 μg of protein lysate was loaded onto an SDS-PAGE gel (10% Pre-cast, Bio-Rad), run at 100 V for 1 h and subsequently blotted onto a nitrocellulose membrane. Antibodies against phospho-S6 Ribosomal Protein (Ser235/236) (#2211, 1:1000 dilution), phospho-4E-BP(Thr37/46) (#2855, 1:1000 dilution), S6 Ribosomal Protein (#2317, 1:1000 dilution) and 4E-BP1 (#9644, 1:1000 dilution) were purchased from Cell Signaling Technology. HRP-labeled anti-rabbit (7074 S, Cell Signaling, 1:10 000 dilution) and anti-mouse (7076P2, Cell Signaling, 1:10 000 dilution) antibodies were used as secondary antibodies. Anti-Vinculin antibody (V9131, Sigma-Aldrich, 1:10 000 dilution) was used as loading control. The antibodies were diluted in BSA/TBST (5% BSA in TBS with 0.1% Tween20) and antibody binding with membrane was evaluated using the SuperSignal West Dura Extended Duration Substrate (ThermoFisher Scientific) or SuperSignal West Femto Maximum Sensitivity Substrate (ThermoFisher Scientific). Imaging was performed by means of the Amersham Imager 680 (GE Healthcare). Image J was used for the quantification of the blots.
# [2] = test system: UM patient derived xenografts (PDX) model (MP46); experiment: Tumor growth in UM patient derived xenograft model; format: in vivo, mouse
# Method: Since SAMMSON expression is not conserved across species, an UM patient derived xenografts (PDX) model (MP46) was used to investigate the effect on tumor growth in vivo upon SAMMSON knock down. LNA ASO 3 and LNA non targeting control (NTC) were subcutaneous injected at a dose of 10 mg/kg three times in the first week and twice per week in the second and third week.
# [3] = test system: UM cell lines 92.1 and OMM1; experiment: SUnSET puromycin incorporation (translation rate); format: cell-based, human; conditions: 92.1 and OMM1, 24 h; ASO 3 50 nM, GDC-0349 0.625 μM
# Method: Cells were seeded in T75 culture flasks (Cellstar) at a density of 1 170 000 cells/T75 flask 24 h prior to transfection. The cells were transfected with 50 nM LNA ASO 3 or NTC using lipofectamine 2000, followed by GDC-0349 (0.625 μM) or DMSO treatment. 24 h later, cells were washed in 1× phosphate buffer saline (PBS) and subsequently incubated with puromycin containing media (InvivoGen, 10 μg/ml) for 10 min. Puromycin incorporation is a proxy for the mRNA translation rate in vitro and was measured by Western blotting using an anti-puromycin antibody (MABE343, clone 12D10, Merck Millipore, 1:10 000). The antibody was diluted in Milk/TB ST (5% non-fat dry milk in TBS with 0.1% Tween20). Imaging was performed by means of the Amersham Imager 680 (GE Healthcare). An equal protein loading was verified using a ponceau S staining (Sigma Aldrich). Image J was used for the quantification of the blots.
# [4] = test system: UM cell lines 92.1 and OMM1; experiment: Differential gene expression analysis by RNA sequencing; format: cell-based, human; conditions: 92.1 and OMM1, 24 h; ASO 3 50 nM, GDC-0349 0.625 μM
# Method: RNA sequencing was performed on quadruplicates of NTC (50 nM), ASO 3 (50 nM), GDC-0349 (0.625 μM) and ASO 3 (50 nM)+GDC-0349 (0.625 μM) treated 92.1 and OMM1 cells. Libraries for RNA sequencing were prepared using the Quant Seq 3′ end library prep […] and quantified on a Qubit 2.0 Fluorometer prior to single-end sequencing with 75 bp read length on a NextSeq 500 sequencer (Illumina). Reads were mapped to the human genome (hg38) and gene expression was quantified using HTSeq. Differentialy expressed genes were identified using DESeq2.
# rpS6 (S235/S236) = experiment: Western blot for rpS6 and phospho-rpS6; format: cell-based, human; conditions: 92.1, 24 h, GDC-0349 0.625 μM or 1.25 μM; for phosphorylated rpS6 (S235/S236) levels: ASO 3 50 nM
# Method: as §1
# SAMMSON = SAMMSON expression / knockdown by RT-qPCR in UM cells; format: cell-based, human; conditions: in most cell lines
# Method: Total RNA was extracted using the miRNeasy kit (Qiagen) according to the manufacturer's instructions, including on-column DNase treatment. The Nanodrop (ThermoFisher Scientific) was used to determine RNA concentrations and cDNA synthesis was performed using the iScript Advanced cDNA synthesis kit (Bio-Rad) using a mix containing 200 ng of RNA, 4 μl of 5× iScript advanced reaction buffer and 1 μl of iScript advanced reverse transcriptase. The qPCR mix contains 2 μl of cDNA (5 ng), 2.5 μl SsoAdvanced Universal SYBR Green Supermix (Bio-Rad), 0.25 μl forward (5 μM, IDT) and reverse primer (5 μM, IDT) and was analyzed on a LC-480 device (Roche). Expression levels were normalized using expression data of at least 2 stable reference genes out of 4 tested reference genes (SDHA^9,10, HPRT1^11,12, UBC^13 and TBP^14,15). Analysis was performed using the qbase+software (https://www.qbaseplus.com).
# UM cell line OMM1 = experiment: Seahorse XF Cell Mito Stress Test; format: cell-based, human; conditions: GDC-0349 0.625 μM, ASO 3 50 nM, combination compared to single ASO 3 treatment
# Method: Cells were seeded in T75 culture flasks (Cellstar) at a density of 1 170 000 cells/T75 flask 24 h prior to transfection. The cells were transfected with 50 nM ASO 3 or NTC using lipofectamine 2000, followed by GDC-0349 (0.625 μM) treatment. Four hours later, 25 000 cells were transferred to Seahorse XFp Cell Culture Miniplates (Agilent) and were allowed to settle overnight. Subsequently, oxygen consumption rates were measured in triplicates for each condition using the Seahorse XFp device (Agilent) according to the standard mito stress test procedures in seahorse assay medium supplemented with 14.3 mM glucose, 1 mM pyruvate and 2 mM glutamine (Sigma), and cells were sequentially challenged with 1 μM oligomycin, 1 μM carbonyl cyanide 4-(trifluoromethoxy)-phenylhydrazone (FCCP) and 0.5 μM of a rotenone antimycin A mix (Agilent). Following the assay, protein concentrations were calculated based upon absorbance reading at 280 nm (Biodrop, Isogen Lifescience) for normalization of the results. Spare respiratory capacity was calculated as the difference between maximal and the basal oxygen consumption rate. Relative oxygen consumption rates are relative compared to NTC values.
molecule,measurement,setting,value
"CC(=O)Nc1ccc(C(=O)Nc2ccccc2N)cc1 [CI-994, N-(2-aminophenyl)-4-acetamidobenzamide]",Excess over Bliss score (synergism),[1],synergistic
"LNA ASO 3: LNA gapmer antisense oligonucleotide targeting SAMMSON, GTGTGAACTTGGCT (SEQ ID NO: 1), purchased from Qiagen (LNA gapmer from Qiagen, pattern not given here)",phosphorylated 4E-BP1 (T37/T46) levels,4E-BP1 (T37/T46),less phosphorylated 4E-BP1
same,weight loss,"[2]; subcutaneous 10 mg/kg LNA ASO 3, PDX mice",no weight loss
same,tumor growth,"[2]; subcutaneous 10 mg/kg, three times in first week, twice per week in second and third week, compared to NTC treated PDX mice",significant tumor growth inhibition
same,translation rate (incorporated puromycin signal),[3],translation inhibition
same,expression pattern of differentially expressed genes compared to NTC ASO,[4],reverses the expression pattern
same,phosphorylated rpS6 (S235/S236) levels,rpS6 (S235/S236),doesn't affect the phosphorylation status of rpS6
same,knockdown and phenotypic effect compared to LNA ASO 11,SAMMSON,more efficient knockdown and phenotypic effect
"Nc1ccccc1NC(=O)c1ccc(CNC(=O)OCc2cccnc2)cc1 [entinostat, (pyridin-3-yl)methyl N-({4-[(2-aminophenyl)carbamoyl]phenyl}methyl)carbamate]",Excess over Bliss score (synergism),[1],synergistic
"CCNC(=O)Nc1ccc(-c2nc3c(c(N4CCOC[C@@H]4C)n2)CCN(C2COC2)C3)cc1 [GDC-0349, 3-ethyl-1-(4-{4-[(3S)-3-methylmorpholin-4-yl]-7-(oxetan-3-yl)-5H,6H,7H,8H-pyrido[3,4-d]pyrimidin-2-yl}phenyl)urea]",phosphorylated 4E-BP1 (T37/T46) levels,4E-BP1 (T37/T46),dose dependent reduction
same,total 4E-BP1 levels,4E-BP1 (T37/T46),remain unaffected
same,mitochondrial function / oxidative phosphorylation (oxygen consumption rate),UM cell line OMM1,does not alter the mitochondrial function
same,translation rate (incorporated puromycin signal),[3],translation inhibition
same,Excess over Bliss score (synergism),[1],synergistic
same,expression pattern of differentially expressed genes compared to NTC ASO,[4],not affecting the expression of many of these genes
same,phosphorylated rpS6 (S235/S236) levels,rpS6 (S235/S236),dose dependent reduction
same,total rpS6 levels,rpS6 (S235/S236),remain unaffected
"Oc1c(I)cc(Cl)c2cccnc12 [clioquinol, 5-chloro-7-iodoquinolin-8-ol]",Excess over Bliss score (synergism),[1],synergistic
"CC#C[C@]1(O)CC[C@H]2[C@@H]3CCC4=CC(=O)CCC4=C3[C@@H](c3ccc(N(C)C)cc3)C[C@@]21C [mifepristone, (1S,3aS,3bS,10R,11 aS)-10-[4-(dimethylamino)phenyl]-1-hydroxy-11a-methyl-1-(prop-1-yn-1-yl)-1H,2H,3H,3aH,3bH,4H,5H,7H,8H,9H,10H,11H,11aH-cyclopenta[a]phenanthren-7-one]",Excess over Bliss score (synergism),[1],synergistic
"Cc1cc(C)c(-c2csc(NC(=O)c3ccccc3)n2)c(C)c1 [INH-6, N-[4-(2,4,6-trimethylphenyl)-2-thiazolyl]-benzamide]",Excess over Bliss score (synergism),[1],synergistic
"COc1cc(NS(C)(=O)=O)ccc1Nc1c2ccccc2nc2ccccc12 [amsacrine, N-{4-[(acridin-9-yl)amino]-3-methoxyphenyl}methanesulfonamide]",Excess over Bliss score (synergism),[1],synergistic
